Calls of active or inactive are those of the source. The calls are words filed in the database; no cut-off is given here.
Columns and labels:
Format in all cases: functional, cell-based
[1] = tested on: MCF7; assay: Anti-estrogenic activity in human MCF7 cells assessed as reduction in 17beta-estradiol-induced cell viability at 100 nM after 24 hrs by MTT assay
[2] = tested on: MCF7; assay: Antiproliferative activity against human MCF7 cells assessed as reduction in cell viability after 24 hrs by MTT assay; conditions: MCF7, 24 h
[3] = tested on: MCF7; assay: Anti-estrogenic activity in human MCF7 cells assessed as reduction in 17beta-estradiol-induced cell viability at 100 to 200 uM after 24 hrs by MTT assay

Structure (SMILES)	Activity [1]	IC50 [2] [µM]	Activity [3]
C[C@]12CC[C@@H]3c4ccc(O)cc4C[C@@H](CCCCCCCCC[S+]([O-])CCCC(F)(F)C(F)(F)F)[C@H]3[C@@H]1CC[C@@H]2O (stereo partly drawn)	Active	–	–
C[C@H](CO)[C@H]1CC[C@]2(C)C[C@@H]3[C@H](CO)C[C@@H](O)[C@H]3[C@@](C)(O)C/C=C/12	–	567	Active

— ChEMBL document CHEMBL4613244, “Absolute Configuration and Corrected NMR Assignment of 17-Hydroxycyclooctatin, a Fused 5-8-5 Tricyclic Diterpene” (J Nat Prod, 2020)
